For test [1], the target named is T1, lysosomal acid α-glucosidase (GAA) (Homo sapiens, UniProt P10253).
T1 construct: purchased Genzyme
Description: Lysosomal acid α-glucosidase (GAA) inhibition assay, Myozyme as enzyme source, 4-methylumbelliferyl-α-D-glucopyranoside substrate. The test is classed as biochemical. The settings on record: for IC50: Myozyme, pH 6.8, 37 °C 30 min; for Selectivity Index ER α-Glcase II/GAA: ratio of IC50 ER α-glucosidase II / IC50 GAA. The procedure:
(§1) The inhibitory activity toward lysosomal acid α-glucosidase (GAA) was measured with Myozyme (Genzyme; Boston, MA, USA) as the enzyme source, and 4-methylumbelliferyl-α-D-glucopyranoside (Sigma-Aldrich Co.; St. Louis, Mo, USA) as substrate. The reaction mixture consisted 100 mM McIlvaine buffer (pH 6.8), 0.25% sodium taurocholate and 0.1% Triton X-100 (Nacalai Tesque Inc.; Kyoto, Japan), and the appropriate amount of enzyme. The reaction mixture was pre-incubated at 0 °C for 45 min, and the reaction was started by the using 4 mM substrate solution, followed by incubation at 37 °C for 30 min. The reaction was stopped by the addition of 1.6 mL of the solution of 400 mM Glycine-NaOH solution (pH 10.6). The released 4-methylumbelliferone was measured (excitation 362 nm, emission 450 nm) with a F-4500 fluorescence spectrophotometer (Hitachi, Tokyo, Japan). ER α-glucosidase II was prepared from the rat liver according to the method of Hino et al.. For ER α-glucosidase II activities, 4-nitrophenyl-α-D-glucopyranoside (Sigma-Aldrich Co.; St. Louis, MO, USA) was used as substrate. The reaction mixture contained phosphate buffer (pH 6.8), 0.25% sodium taurocholate, and the appropriate amount of enzyme. The reaction mixture was pre-incubated at 0 °C for 30 min, and the reaction was started by the using 4 mM substrate solution, followed by incubation at 37 °C for 30 min. The reaction was stopped by adding 0.4 mL of 400 mM Na2CO3. The released p-nitrophenol was measured spectrometrically at 400 nm.

Test [2] deals with T2, ER α-glucosidase II (Rattus norvegicus, UniProt A0A8I6GFL3).
T2 construct: ER α-glucosidase II was prepared from the rat liver; from tissue; host or cells: rat liver
T2 sequence (A0A8I6GFL3 33-944): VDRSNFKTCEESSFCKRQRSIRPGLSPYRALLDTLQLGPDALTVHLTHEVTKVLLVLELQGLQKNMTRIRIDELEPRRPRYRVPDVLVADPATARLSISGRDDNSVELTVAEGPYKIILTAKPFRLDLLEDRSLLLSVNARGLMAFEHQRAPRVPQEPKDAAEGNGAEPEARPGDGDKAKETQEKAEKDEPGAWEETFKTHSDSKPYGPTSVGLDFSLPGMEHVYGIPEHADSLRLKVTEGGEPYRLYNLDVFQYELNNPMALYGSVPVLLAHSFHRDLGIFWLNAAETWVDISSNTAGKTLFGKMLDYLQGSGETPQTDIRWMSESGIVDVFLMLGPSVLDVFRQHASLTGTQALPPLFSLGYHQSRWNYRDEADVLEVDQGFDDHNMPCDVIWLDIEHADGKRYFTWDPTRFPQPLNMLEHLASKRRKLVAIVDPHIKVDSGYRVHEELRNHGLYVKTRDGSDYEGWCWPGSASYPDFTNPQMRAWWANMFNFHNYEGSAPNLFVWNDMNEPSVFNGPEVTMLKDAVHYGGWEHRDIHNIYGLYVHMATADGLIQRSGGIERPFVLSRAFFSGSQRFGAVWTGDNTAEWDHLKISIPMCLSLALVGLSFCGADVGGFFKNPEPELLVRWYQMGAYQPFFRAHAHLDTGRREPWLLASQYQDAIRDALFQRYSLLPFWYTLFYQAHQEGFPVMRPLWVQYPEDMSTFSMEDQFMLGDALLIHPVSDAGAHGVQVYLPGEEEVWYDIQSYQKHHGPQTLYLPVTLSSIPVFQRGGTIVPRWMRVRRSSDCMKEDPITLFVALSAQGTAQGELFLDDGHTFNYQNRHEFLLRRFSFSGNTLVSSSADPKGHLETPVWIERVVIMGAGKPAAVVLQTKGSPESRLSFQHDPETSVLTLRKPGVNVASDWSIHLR
Description: ER α-glucosidase II inhibition assay, enzyme prepared from rat liver, 4-nitrophenyl-α-D-glucopyranoside substrate. The test is classed as biochemical. The following applies: for IC50: rat liver enzyme, pH 6.8, 37 °C 30 min, read-out: IC50 ER α-Glcase II. The procedure:
as §1

In test [3] the target is T1, lysosomal acid α-glucosidase (GAA). Kind of test: In vitro thermostability of GAA at 47 °C, remaining enzyme activity. The class given is biochemical. The settings on record: 10 µM compound, pH 6.8, incubation 60 min. The procedure: GAA was incubated in 100 mM McIlvaine buffer (pH 6.8) containing 0.25% sodium taurocholate and 0.1% Triton X-100 for 0, 20, 40, and 60 min, and the remaining enzyme activity was determined with 4-methylumbelliferl-α-D-glucopyranoside as substrate. The enzyme activity was 83% lost within 60 min under incubation without test samples, while the incubation with α-1-C-heptyl-LAB effectively stabilized GAA. The enzyme activity remained over 94% even under the incubation for 60 min in the presence of 10 µM α-1-C-heptyl-LAB (Figure 8). […] In contrast, 10 µM α-1-C-ethyl-LAB could not sufficiently protect the enzyme activity (50% activity remained at 60 min).
GAA was incubated at 47 °C in 100 mM sodium citrate buffer (pH 6.8) containing 1 mg/mL of bovine serum albumin (BSA) at various incubation times with or without iminosugars. Each value represents the mean ± SEM (n = 3).
The enzyme GAA was incubated at 47 °C in 100 mM McIlvaine buffer (pH 6.8) containing 0.25% sodium taurocholate and 0.1% Triton X-100 for 0, 20, 40, and 60 min. After incubation, the remaining GAA activity was assayed immediately using 4 mM 4-methylumbelliferyl-α-D-glucopyranoside as substrate.

For test [4], the target named is Jack bean α-mannosidase. Set-up: method as in PMID 15771446. The following applies: Figure 1; cited from earlier work.
Test [5] addresses lysosomal α-galactosidase A. On the set-up: method as in PMID 15771446. The settings on record: Figure 1; cited from earlier work.

Take `CCC[C@@H]1N[C@@H](CO)[C@H](O)[C@H]1O` [α-1-C-Propyl-LAB]: the results for the IC50 in test [1] and in test [2] were 7.4 ± 0.31 µM and 413 ± 50 µM, respectively. In test [1], the “Selectivity Index ER α-Glcase II/GAA” value amounted to 55.8.
For `OC[C@@H]1NC[C@H](O)[C@H]1O` [LAB, 1,4-Dideoxy-1,4-imino-L-arabinitol], the “Inhibition potency of GAA, times weaker than DNJ” value in test [1] (relative to DNJ) was 3.5 times. For the same compound, the IC50 in test [2] stood at 2.8 ± 0.22 µM. Moreover, the “GAA enzyme activity remained” value in test [3] was found to be 89%.
As for `C[C@@H]1N[C@@H](CO)[C@H](O)[C@H]1O` [α-1-C-Methyl-LAB], in test [1], the IC50 came to 2 ± 0.12 µM and the “Selectivity Index ER α-Glcase II/GAA” value came to 13.0. In test [2], the IC50 worked out at 26 ± 2 µM.
For the compound `OC[C@H]1NC[C@@H](O)[C@@H](O)[C@@H]1O` [DMJ, 1,5-dideoxy-1,5-imino-D-mannitol], in test [4], the IC50 is 774 µM.
Turning to `CC[C@@H]1N[C@@H](CO)[C@H](O)[C@H]1O` [α-1-C-Ethyl-LAB], in test [1], the IC50 was found to be 11 ± 1.1 µM and the “Selectivity Index ER α-Glcase II/GAA” value worked out at 49.2. Further, the “Inhibition of GAA, fold lower than LAB” value in test [1] (relative to LAB) is on record as 21 fold. In addition, the IC50 in test [2] amounted to 541 ± 26 µM. In test [2] (relative to LAB), the “Inhibition of ER α-glucosidase II, fold weaker than LAB” value was 193 fold. The “GAA enzyme activity remained” value in test [3] was determined as 50%.
`CCCC[C@@H]1N[C@@H](CO)[C@H](O)[C@H]1O` [α-1-C-Butyl-LAB]: in test [1], inhibition was half-maximal at 1.6 ± 0.04 µM (IC50) and the “Selectivity Index ER α-Glcase II/GAA” value is given as 142.5. Besides, in test [2], the IC50 amounted to 228 ± 13 µM.
As for `OC[C@H]1NC[C@H](O)[C@@H](O)[C@@H]1O` [DNJ, 1,5-Dideoxy-1,5-imino-D-glucitol, reference compound], in test [2], the IC50 stood at 8 ± 0.55 µM.
`OC[C@H]1NC[C@H](O)[C@@H](O)[C@H]1O` [DGJ, 1,5-dideoxy-1,5-imino-D-galactitol]: the IC50 in test [5] is 0.07 µM.
Regarding `CCCCCCC[C@@H]1N[C@@H](CO)[C@H](O)[C@H]1O` [α-1-C-Heptyl-LAB, α-1-C-heptyl-1,4-dideoxy-1,4-imino-L-arabinitol], in test [1], half-maximal inhibition (IC50) required 0.44 ± 0.044 µM and the “Selectivity Index ER α-Glcase II/GAA” value is on record as 168.2. Also, the “Selectivity index, fold better relative to the parent LAB” value in test [1] (relative to LAB) is recorded as 31 fold. The IC50 in test [2] came out at 74 ± 3.7 µM. In test [3], the “GAA enzyme activity remained” value was “over 94%”.
As for `CCCCC[C@@H]1N[C@@H](CO)[C@H](O)[C@H]1O` [α-1-C-Pentyl-LAB], in test [1], it took 1.1 ± 0.088 µM to reach half-maximal inhibition (IC50) and the “Selectivity Index ER α-Glcase II/GAA” value was found to be 163.6. In addition, in test [2], the IC50 was 180 ± 19 µM.
Regarding `CCCCCC[C@@H]1N[C@@H](CO)[C@H](O)[C@H]1O` [α-1-C-Hexyl-LAB], in test [1], the IC50 turned out to be 0.71 ± 0.029 µM and the “Selectivity Index ER α-Glcase II/GAA” value was 140.8. For the same compound, the IC50 in test [2] came out at 100 ± 6.2 µM.

The values are drawn from publication PMC7357040, “Strategy for Designing Selective Lysosomal Acid α-Glucosidase Inhibitors: Binding Orientation and Influence on Selectivity” (Molecules, 2020).
